Results taken from US6495715B2, “Calcium channel blockers” (Warner-Lambert Company, priority 1997, dated 2002).
Counter-ions that a name gives are not always drawn.

Biological target: T1, N-type Ca2+ channel (Homo sapiens, UniProt Q00975)
T1 construct: host or cells: IMR-32 cells, differentiated with dibutyryl cAMP and bromodeoxyuridine
Assay: Measurement of N-type Ca2+ channel blocking potencies in IMR-32 cells using the fluorescent Ca2+ indicator Indo-1
Assay type: cell-based
Details: for IC50: K+-stimulated Ca2+ flux, 5 μM nitrendipine to block L-type channels; for inhibition at 1 µM / IMR 32 % of Blockade @ 1 μM: 1 μM compound; for inhibition at 1 µM: read-out: IMR 32 % of Blockade @ 1 μM; for inhibition at 10 µM / IMR 32 % of Blockade @ 10 μM: 10 μM compound; for inhibition at 10 µM: read-out: IMR 32 % of Blockade @ 10 μM
Protocol: Measurement of N-type Ca^2+ Channel Blocking Potencies of Compounds in IMR-32 Cells Using the Fluorescent Ca^2+Indicator Indo-1
IMR-32 cells are a human tumoral cell line of neural origin. […] Calcium flux into these cells may be induced by stimulation with elevated potassium concentrations. The L-channel component of calcium flux may be blocked by adding 5 μM nitrendipine. The remaining component of calcium entry into the IMR-32 cells is due to calcium flux through N-type calcium channels. Intracellular calcium concentrations are measured using the fluorescent calcium indicator Indo-1. The effect of drug concentration on calcium uptake is studied.
The IMR-32 cell line was obtained from the American Type Culture Collection (Rockville, Md.). Cells were grown in Eagle's Minimum Essential Medium with Earle's salts supplemented with 10% fetal bovine serum, 2 mM L-Gln and antibiotic/antimycotic mixture (Gibco). […] After 7 to 13 days of differentiation, cells were detached using 0.5 mM EDTA and loaded with 5 μM Indo-1 acetoxymethyl ester (Molecular Probes, Eugene, Oreg.) at 30° C. for 45 minutes. Loaded cells were washed twice, resuspended (˜10^7 cells/mL) in assay buffer (10 mM HEPES/Tris pH 7.4 in Hank's Balanced Salt Solution without bicarbonate or phenol red containing 0.5% bovine serum albumin) and kept on ice until use. Fluorescence measurements were carried out in a Photon Technology International (PTI, South Brunswick, N.J.) Model RF-F3004 spectrofluorometer with dual emission monochromators using excitation at […] and emission at 400 and 490 nm. The instrument was equipped with a thermostated cuvette holder with stirring capabilities as well as with a computer-controlled pump which allowed for reagent addition during measurement. Instrument control and data collection was done by PTI's OSCAR software running on an IBM compatible computer. Different concentrations of the test compounds (60 μL in dimethyl sulfoxide) were added to 5.94 mL of assay buffer containing approximately 3×10^6 loaded cells, and 5 μM Nitrendipine (in […] EtOH) to block L-type Ca^2+ channels. Samples were incubated for 10 minutes at 30° C. and then aliquoted into three 10×10 mm disposable acrylic cuvettes. Emission signals at 400 and 490 nm were acquired from each cuvette at 30° C. for 50 seconds. At 20 seconds after the start of reading, cells were depolarized by the addition of 160 μL of stimulation solution (1 M KCl, 68 mM CaCl2) to the cuvette via the computer-controlled pump. Ratio of dual emission signals (400 nm/490 nm), which is proportional to intracellular Ca^2+ concentration, was plotted against time, and the difference between maximal response after stimulation and basal value (before stimulation) was determined. Values obtained in this way were plotted as a function of drug concentration. IC50 values of test compounds were calculated by fitting a four-parameter logistic function to the data using the least squares method.

T1 sequence (Q00975 whole entry): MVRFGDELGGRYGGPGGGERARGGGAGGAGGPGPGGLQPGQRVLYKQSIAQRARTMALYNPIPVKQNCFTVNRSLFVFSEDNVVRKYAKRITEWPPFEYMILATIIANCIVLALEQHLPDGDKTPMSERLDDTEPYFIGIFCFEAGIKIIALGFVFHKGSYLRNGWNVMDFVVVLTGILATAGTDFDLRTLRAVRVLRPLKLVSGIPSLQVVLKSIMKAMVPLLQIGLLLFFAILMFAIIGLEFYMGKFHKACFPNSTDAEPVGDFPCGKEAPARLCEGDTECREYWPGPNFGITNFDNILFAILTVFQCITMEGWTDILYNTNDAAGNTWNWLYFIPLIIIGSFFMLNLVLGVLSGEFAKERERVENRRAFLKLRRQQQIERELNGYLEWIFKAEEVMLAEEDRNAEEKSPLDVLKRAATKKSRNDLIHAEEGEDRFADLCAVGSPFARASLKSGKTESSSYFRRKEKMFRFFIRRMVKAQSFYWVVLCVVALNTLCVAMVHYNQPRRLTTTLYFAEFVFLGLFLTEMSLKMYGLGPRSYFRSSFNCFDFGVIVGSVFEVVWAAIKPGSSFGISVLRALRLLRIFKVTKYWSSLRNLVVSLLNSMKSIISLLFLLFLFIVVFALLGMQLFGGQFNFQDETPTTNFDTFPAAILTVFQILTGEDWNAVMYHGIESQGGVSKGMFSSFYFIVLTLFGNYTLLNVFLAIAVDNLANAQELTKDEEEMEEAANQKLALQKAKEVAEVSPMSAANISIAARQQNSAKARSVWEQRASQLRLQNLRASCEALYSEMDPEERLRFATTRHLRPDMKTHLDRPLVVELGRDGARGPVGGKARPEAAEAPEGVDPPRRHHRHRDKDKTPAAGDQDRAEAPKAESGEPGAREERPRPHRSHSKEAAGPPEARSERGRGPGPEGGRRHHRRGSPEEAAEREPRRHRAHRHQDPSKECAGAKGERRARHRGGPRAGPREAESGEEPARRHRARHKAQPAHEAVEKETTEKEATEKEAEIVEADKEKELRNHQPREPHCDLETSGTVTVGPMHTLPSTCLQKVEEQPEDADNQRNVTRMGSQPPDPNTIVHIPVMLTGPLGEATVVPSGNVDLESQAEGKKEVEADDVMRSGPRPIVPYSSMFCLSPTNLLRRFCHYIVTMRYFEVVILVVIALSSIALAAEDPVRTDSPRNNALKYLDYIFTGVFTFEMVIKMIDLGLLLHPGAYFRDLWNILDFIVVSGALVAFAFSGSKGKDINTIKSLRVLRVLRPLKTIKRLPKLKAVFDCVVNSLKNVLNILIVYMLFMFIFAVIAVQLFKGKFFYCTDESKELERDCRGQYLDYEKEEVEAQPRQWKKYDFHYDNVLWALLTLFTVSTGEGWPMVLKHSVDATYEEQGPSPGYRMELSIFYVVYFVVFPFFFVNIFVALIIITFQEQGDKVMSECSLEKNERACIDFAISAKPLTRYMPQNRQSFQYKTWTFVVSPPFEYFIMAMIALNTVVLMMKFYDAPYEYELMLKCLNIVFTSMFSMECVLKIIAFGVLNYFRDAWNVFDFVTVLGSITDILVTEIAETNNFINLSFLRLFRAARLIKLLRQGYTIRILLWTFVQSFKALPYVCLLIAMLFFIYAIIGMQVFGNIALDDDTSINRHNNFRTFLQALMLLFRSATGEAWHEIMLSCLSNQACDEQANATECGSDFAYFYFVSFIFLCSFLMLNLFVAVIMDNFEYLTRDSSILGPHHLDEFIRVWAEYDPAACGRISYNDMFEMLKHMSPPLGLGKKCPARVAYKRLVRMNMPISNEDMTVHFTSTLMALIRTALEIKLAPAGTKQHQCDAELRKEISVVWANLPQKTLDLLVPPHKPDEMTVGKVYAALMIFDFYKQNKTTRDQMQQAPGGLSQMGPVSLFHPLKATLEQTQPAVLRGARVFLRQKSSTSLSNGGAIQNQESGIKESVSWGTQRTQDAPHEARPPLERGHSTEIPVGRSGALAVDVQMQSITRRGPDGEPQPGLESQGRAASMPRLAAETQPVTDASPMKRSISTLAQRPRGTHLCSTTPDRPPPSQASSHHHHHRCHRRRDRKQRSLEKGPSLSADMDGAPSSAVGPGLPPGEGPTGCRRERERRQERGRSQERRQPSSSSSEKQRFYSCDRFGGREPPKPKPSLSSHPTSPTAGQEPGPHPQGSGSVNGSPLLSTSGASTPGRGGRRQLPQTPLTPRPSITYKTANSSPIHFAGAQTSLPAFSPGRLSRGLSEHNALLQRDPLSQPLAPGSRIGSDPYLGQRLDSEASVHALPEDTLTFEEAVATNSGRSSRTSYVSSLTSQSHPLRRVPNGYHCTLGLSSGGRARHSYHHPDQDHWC
T1 sequence (P54289 25-956 partner limits assumed): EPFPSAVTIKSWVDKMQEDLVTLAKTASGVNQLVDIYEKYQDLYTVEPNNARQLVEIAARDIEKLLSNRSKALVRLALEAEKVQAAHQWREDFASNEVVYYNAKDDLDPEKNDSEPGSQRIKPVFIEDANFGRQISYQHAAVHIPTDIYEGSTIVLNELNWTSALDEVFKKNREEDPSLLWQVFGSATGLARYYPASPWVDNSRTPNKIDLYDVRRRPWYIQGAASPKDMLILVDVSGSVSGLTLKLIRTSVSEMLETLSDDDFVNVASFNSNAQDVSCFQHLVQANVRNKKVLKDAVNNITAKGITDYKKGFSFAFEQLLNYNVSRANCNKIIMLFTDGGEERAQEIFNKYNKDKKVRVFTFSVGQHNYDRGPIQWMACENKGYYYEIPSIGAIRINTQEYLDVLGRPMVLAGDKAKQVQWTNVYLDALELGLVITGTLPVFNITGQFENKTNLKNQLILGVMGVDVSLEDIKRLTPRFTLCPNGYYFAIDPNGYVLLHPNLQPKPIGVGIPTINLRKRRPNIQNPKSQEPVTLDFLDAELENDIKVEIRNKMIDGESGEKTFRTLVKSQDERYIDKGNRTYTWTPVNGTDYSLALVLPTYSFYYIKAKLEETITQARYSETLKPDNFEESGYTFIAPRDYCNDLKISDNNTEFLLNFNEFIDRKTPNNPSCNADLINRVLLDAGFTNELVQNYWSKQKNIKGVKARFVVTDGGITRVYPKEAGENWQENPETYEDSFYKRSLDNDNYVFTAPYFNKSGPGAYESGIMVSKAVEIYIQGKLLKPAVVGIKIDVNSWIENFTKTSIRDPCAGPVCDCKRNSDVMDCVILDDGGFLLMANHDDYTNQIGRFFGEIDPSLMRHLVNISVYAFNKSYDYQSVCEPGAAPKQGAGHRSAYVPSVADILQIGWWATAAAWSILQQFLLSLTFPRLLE
T1 sequence (P54289 957-1103 partner limits assumed): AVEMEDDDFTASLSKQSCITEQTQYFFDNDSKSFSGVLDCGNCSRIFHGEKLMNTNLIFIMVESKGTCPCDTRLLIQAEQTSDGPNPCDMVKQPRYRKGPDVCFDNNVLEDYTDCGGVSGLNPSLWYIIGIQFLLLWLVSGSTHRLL
T1 sequence (Q02641 whole entry partner): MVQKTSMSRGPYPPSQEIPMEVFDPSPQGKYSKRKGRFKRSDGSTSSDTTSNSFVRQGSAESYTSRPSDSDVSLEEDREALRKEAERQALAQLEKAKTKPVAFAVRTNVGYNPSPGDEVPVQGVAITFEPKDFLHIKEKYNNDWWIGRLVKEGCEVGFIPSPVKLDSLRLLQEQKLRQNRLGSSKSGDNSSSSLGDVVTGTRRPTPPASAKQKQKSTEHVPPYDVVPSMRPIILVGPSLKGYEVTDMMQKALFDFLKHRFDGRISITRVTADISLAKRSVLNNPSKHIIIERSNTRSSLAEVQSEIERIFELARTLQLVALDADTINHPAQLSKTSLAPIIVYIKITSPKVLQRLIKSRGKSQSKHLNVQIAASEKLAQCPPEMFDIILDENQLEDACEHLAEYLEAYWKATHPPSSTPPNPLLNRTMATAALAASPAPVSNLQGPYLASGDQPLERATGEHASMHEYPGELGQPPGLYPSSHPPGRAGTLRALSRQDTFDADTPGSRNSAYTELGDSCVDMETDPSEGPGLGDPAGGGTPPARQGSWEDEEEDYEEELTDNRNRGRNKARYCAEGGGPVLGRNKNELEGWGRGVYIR

`CC(C)CCN(c1ccc(NCc2ccccc2)cc1)C1CCN(C(=O)[C@H](CC(C)C)NC(=O)N2CCCCCC2)CC1` [Example 39, (S)-Azepane-1-carboxylic acid (1-{4-[(4-benzylamino-phenyl)-(3-methyl-butyl)-amino]-piperidine-1-carbonyl}-3-methyl-butyl)-amide] showed an IC50 of 400 nM.
For `CC(C)=CCN(c1ccc(OCc2ccccc2)cc1)C1CCCN(C(=O)[C@H](CC(C)C)NC(=O)N2CCCCCC2)C1` (mixture of isomers) [Example 46, (S,R/S)-Azepane-1-carboxylic acid (1-{3-[(4-benzyloxy-phenyl)-(3-methyl-but-2-enyl)-amino]-piperidine-1-carbonyl}-3-methyl-butyl)-amide], the inhibition at 1 µM (5 μM nitrendipine) was 41% and the inhibition at 10 µM (5 μM nitrendipine) was 91%.
With `CC(C)CCN(c1ccc(NCC2CCCCC2)cc1)C1CCN(C(=O)[C@H](CC(C)C)NC(=O)N2CCCCCC2)CC1` [Example 37, (S)-Azepane-1-carboxylic acid (1-{4-[[4-(Cyclohexylmethyl-amino)-phenyl]-(3-methyl-butyl)-amino]-piperidine-1-carbonyl}-3-methyl-butyl)-amide] the IC50 was 290 nM.
For `CC(C)=CCN(c1ccc(OCc2ccccc2)cc1)C1CCN(C(=O)[C@H](CC(C)C)NC2CCCCC2)CC1` [Example 26, (S)-1-{4-[(4-Benzyloxy-phenyl)-(3-methyl-but-2-enyl)-amino]-piperidin-1-yl}-2-cyclohexylamino-4-methyl-pentan-1-one], the IC50 was 510 nM.
With `CC(C)=CCN(c1ccc(NC(=O)OCc2ccccc2)cc1)C1CCN(C(=O)[C@H](CC(C)C)NC(=O)N2CCCCCC2)CC1` [Example 33, (S)-{4-[(1-{2-[(Azepane-1-carbonyl)-amino]-4-methyl-pentanoyl}-piperidin-4-yl)-(3-methyl-but-2-enyl)-amino]-phenyl}-carbamic acid benzyl ester] the IC50 was 170 nM.
In the case of `CC(C)=CCN(C[C@H](C)NC(=O)[C@H](CC(C)C)NC(=O)N1CCCCCC1)c1ccc(OCc2ccccc2)cc1` (relative stereo) [Example 2, [S-(R*,R*)]-Azepane-1-carboxylic acid (1-{2-[(4-benzyloxy-phenyl)-(3-methyl-but-2-enyl)-amino]-1-methyl-ethylcarbamoyl}-3-methyl-butyl)-amide], the “IMR 32 % of Blockade @ 1 μM” value (5 μM nitrendipine) is reported as 50% @ 1.
With `CC(C)=CCN[C@@H](CC(C)C)C(=O)N[C@@H](C)CN(CC=C(C)C)c1ccc(OCc2ccccc2)cc1` (relative stereo) [Example 15, [S-(R*,R*)]-4-Methyl-2-(3-methyl-but-2-enylamino)-pentanoic acid {2-[(4-benzyloxy-phenyl)-(3-methyl-but-2-enyl)-amino]-1-methyl-ethyl}-amide] the “IMR 32 % of Blockade @ 0.3 μM” value (0.3 μM compound, 5 μM nitrendipine) was 21% and the “IMR 32 % of Blockade @ 3 μM” value (3 μM compound, 5 μM nitrendipine) was 65%.
`CC(C)=CCN(c1ccc(C#CC2(O)CCCCC2)cc1)C1CCN(C(=O)C(CC(C)C)NC(=O)N2CCCCCC2)CC1` (stereo in doubt) [Example 43, (S)-Azepane-1-carboxylic acid (1-{4-[[4-(1-hydroxy-cyclohexylethynyl)-phenyl]-(3-methyl-but-2-enyl)-amino]-piperidine-1-carbonyl}-3-methyl-butyl)-amide] was tested, and the IC50 was 3400 nM.
Compound `CC(C)=CCN(c1ccc(OCc2ccccc2)cc1)C1CCN(C(=O)[C@H](N)CC(C)C)CC1` [Example 21, (R)-2-Amino-1-{4-[(4-benzyloxy-phenyl)-(3-methyl-but-2-enyl)-amino]-piperidin-1-yl}-4-methyl-pentan-1-one] has an inhibition at 1 µM (5 μM nitrendipine) of 43% and an inhibition at 10 µM (5 μM nitrendipine) of 92%.
Work on `CC(C)CCN(c1ccc(NCc2ccccn2)cc1)C1CCN(C(=O)[C@H](CC(C)C)NC(=O)N2CCCCCC2)CC1` [Example 40] yielded an IC50 of 1100 nM.
`CC(C)C[C@H](NC(=O)N1CCCCCC1)C(=O)N1CCC(Nc2ccc(OCc3ccccc3)cc2)CC1` [Example 28, (S)-Azepane-1-carboxylic acid {1-[4-(4-benzyloxy-phenylamino)-piperidine-1-carbonyl]-3-methyl-butyl}-amide] showed an IC50 of 2500 nM.
`CCN(c1ccc(OCc2ccccc2)cc1)C1CCN(C(=O)[C@H](CC(C)C)NC(=O)N2CCCCCC2)CC1` [Example 30, (S)-Azepane-1-carboxylic acid (1-{4-[(4-benzyloxy-phenyl)-ethyl-amino]-piperidine-1-carbonyl}-3-methyl-butyl)-amide] gave an IC50 of 830 nM.
With `CC(C)=CCN(CC(C)(C)NC(=O)[C@H](CC(C)C)N(C)C)c1ccc(OCc2ccccc2)cc1` [Example 9, (S)-2-Dimethylamino-4-methyl-pentanoic acid {2-[(4-benzyloxy-phenyl)-(3-methyl-but-2-enyl)-amino]-1,1-dimethyl-ethyl}-amide] the IC50 was 1600 nM.
For `CC(C)=CCN(C[C@H](C)NC(=O)[C@H](CC(C)C)N(CCC(C)C)CCC(C)C)c1ccc(OCc2ccccc2)cc1` (relative stereo) [Example 18, [S-(R*,R*)]-2-[Bis-(3-methyl-butyl)-amino]-4-methyl-pentanoic acid {2-[(4-benzyloxy-phenyl)-(3-methyl-but-2-enyl)-amino]-1-methyl-ethyl}-amide], the “IMR 32 % of Blockade @ 1 μM” value (5 μM nitrendipine) was 67% and the “IMR 32 % of Blockade @ 10 μM” value (5 μM nitrendipine) was 71%.
With `CC(C)=CCN(c1ccc(OCc2ccccc2)cc1)C1CCCN(C(=O)[C@@H](N)CC(C)C)C1` (mixture of isomers) [Example 45, (S, R/S)-2-Amino-1-{3-[(4-benzyloxy-phenyl)-(3-methyl-but-2-enyl)-amino]-piperidin-1-yl}-4-methyl-pentan-1-one] the inhibition at 1 µM (5 μM nitrendipine) was 40% and the inhibition at 10 µM (5 μM nitrendipine) was 100%.
In the case of `CC(C)=CCN(C[C@H](C)NC(=O)[C@H](CC(C)C)N(C)C)c1ccc(OCc2ccccc2)cc1` (relative stereo) [Example 14, [S-(R*,R*)]-2-Dimethylamino-4-methyl-pentanoic acid {2-[(4-benzyloxy-phenyl)-(3-methyl-but-2-enyl)-amino]-1-methyl-ethyl}-amide], the “IMR 32 % of Blockade @ 1 μM” value (5 μM nitrendipine) is reported as 36% and the “IMR 32 % of Blockade @ 10 μM” value (5 μM nitrendipine) is reported as 86%.
In the case of `CC(C)=CCN(C[C@H](C)NC(=O)[C@H](CC(C)C)NCCC(C)C)c1ccc(OCc2ccccc2)cc1` (relative stereo) [Example 16, [S-(R*,R*)]-4-Methyl-2-(3-methyl-butylamino)-pentanoic acid {2-[(4-benzyloxy-phenyl)-(3-methyl-but-2-enyl)-amino]-1-methyl-ethyl}-amide], the “IMR 32 % of Blockade @ 1 μM” value (5 μM nitrendipine) is reported as 36% and the “IMR 32 % of Blockade @ 10 μM” value (5 μM nitrendipine) is reported as 86%.
With `CC(C)=CCN(CC(C)(C)NC(=O)[C@H](CC(C)C)N(C)CCC(C)C)c1ccc(OCc2ccccc2)cc1` [Example 11, (S)-4-Methyl-2-[methyl-(3-methyl-butyl)-amino]-pentanoic acid {2-[(4-benzyloxy-phenyl)-(3-methyl-but-2-enyl)-amino]-1.1-dimethyl-ethyl}-amide] the “IMR 32 % of Blockade @ 1 μM” value (5 μM nitrendipine) was 49% and the “IMR 32 % of Blockade @ 10 μM” value (5 μM nitrendipine) was 91%.
Compound `CC(C)C[C@H](NC(=O)N1CCCCCC1)C(=O)N1CCC(N(Cc2ccccc2)c2ccc(OCc3ccccc3)cc2)CC1` [Example 31, (S)-Azepane-1-carboxylic acid (1-{4-[benzyl-(4-benzyloxy-phenyl)-amino]-piperidine-1-carbonyl}-3-methyl-butyl)-amide] has an IC50 of 430 nM.
Work on `CC(C)C[C@H](NC(=O)N1CCCCCC1)C(=O)NC(C)(C)CN(c1ccc(OCc2ccccc2)cc1)C1C=CCCC1` (stereo partly drawn) [Example 8, (S)-Azepane-1-carboxylic acid (1-{2-[(4-benzyloxy-phenyl)-cyclohex-2-enyl-amino]-1,1-dimethyl-ethylcarbamoyl}-3-methyl-butyl)-amide] yielded an inhibition at 1 µM (5 μM nitrendipine) of 55% and an inhibition at 10 µM (5 μM nitrendipine) of 76%.
In the case of `CC(C)=CCN(c1ccc(OCc2ccccc2)cc1)C1CCN(C(=O)[C@H](CC(C)C)NC(=O)N2CCCCCC2)CC1` [Example 5, (S)-Azepane-1-carboxylic acid (1-{4-[(4-benzyloxy-phenyl)-(3-methyl-but-2-enyl)-amino]-piperidine-1-carbonyl}-3-methyl-butyl)-amide hydrochloride salt], the IC50 is reported as 500 nM.
`CC(C)=CCN(c1ccc(OCc2ccccc2)cc1)C1CCN(C(=O)[C@H](CC(C)C)NCc2ccc[nH]2)CC1` [Example 27, (S)-1-{4-[(4-Benzyloxy-phenyl)-(3-methyl-but-2-enyl)-amino]-piperidin-1-yl}-4-methyl-2-[(1H-pyrrol-2-ylmethyl)-amino]-pentan-1-one] showed an IC50 of 390 nM.
